Usually IC50 stands for the concentration that gives 50% inhibition. Low values mean higher potency, high ones lower potency.

Each structure is given as a SMILES string. Counter-ions that a name gives are not always drawn. Some results are limits rather than exact numbers.

29 compounds from patent US10787450B2 (BRISTOL-MYERS SQUIBB COMPANY, priority 2016, dated 2020) can be followed below.

Chain of ROCK2 (O75116 whole entry, species assumed): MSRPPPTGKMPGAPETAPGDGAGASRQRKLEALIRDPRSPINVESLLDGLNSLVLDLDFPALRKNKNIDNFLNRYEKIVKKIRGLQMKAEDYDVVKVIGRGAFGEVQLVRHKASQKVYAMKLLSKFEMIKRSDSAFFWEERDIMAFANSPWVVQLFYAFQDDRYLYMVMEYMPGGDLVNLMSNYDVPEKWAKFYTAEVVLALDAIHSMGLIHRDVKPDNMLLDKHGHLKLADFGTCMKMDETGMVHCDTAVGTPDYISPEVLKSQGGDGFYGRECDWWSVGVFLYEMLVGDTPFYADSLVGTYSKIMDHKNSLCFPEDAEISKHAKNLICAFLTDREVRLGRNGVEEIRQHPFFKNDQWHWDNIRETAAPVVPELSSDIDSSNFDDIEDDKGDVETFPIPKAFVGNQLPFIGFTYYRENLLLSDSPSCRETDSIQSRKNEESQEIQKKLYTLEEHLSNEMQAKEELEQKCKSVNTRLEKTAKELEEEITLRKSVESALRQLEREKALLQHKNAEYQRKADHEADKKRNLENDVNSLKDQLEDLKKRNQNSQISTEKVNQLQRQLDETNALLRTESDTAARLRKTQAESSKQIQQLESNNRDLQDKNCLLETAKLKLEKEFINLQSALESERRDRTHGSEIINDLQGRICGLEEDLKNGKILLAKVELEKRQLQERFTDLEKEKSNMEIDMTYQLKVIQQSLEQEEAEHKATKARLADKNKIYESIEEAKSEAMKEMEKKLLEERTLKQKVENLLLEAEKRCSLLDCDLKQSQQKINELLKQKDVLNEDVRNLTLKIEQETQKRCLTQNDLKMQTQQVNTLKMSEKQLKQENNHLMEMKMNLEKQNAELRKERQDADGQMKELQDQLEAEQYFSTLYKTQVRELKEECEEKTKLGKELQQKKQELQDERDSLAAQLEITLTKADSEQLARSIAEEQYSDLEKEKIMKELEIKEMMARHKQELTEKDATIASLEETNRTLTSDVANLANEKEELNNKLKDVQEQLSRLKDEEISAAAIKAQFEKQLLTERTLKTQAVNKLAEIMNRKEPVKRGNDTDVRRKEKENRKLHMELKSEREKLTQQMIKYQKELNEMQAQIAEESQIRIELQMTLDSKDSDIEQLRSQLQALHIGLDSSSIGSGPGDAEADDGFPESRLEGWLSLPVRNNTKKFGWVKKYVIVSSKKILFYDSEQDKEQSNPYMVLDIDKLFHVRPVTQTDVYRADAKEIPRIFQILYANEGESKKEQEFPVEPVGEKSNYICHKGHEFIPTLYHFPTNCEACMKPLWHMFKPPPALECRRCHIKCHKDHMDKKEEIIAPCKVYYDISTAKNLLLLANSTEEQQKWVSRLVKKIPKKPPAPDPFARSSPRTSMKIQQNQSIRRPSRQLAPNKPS

This test has as its target ROCK2 (Homo sapiens (Human), UniProt O75116). Put plainly: ROCK2 kinase inhibition assay (FITC peptide substrate, LABCHIP 3000 Reader). The test is classed as biochemical. The settings on record: 5 μM ATP, 1.5 μM peptide substrate. On the procedure:
The effectiveness of compounds of the present invention as ROCK inhibitors can be determined in a 30 μL assay containing 20 mM HEPES, pH 7.5, 20 mM MgCl2, 0.015% Brij-35, 4 mM DTT, 5 μM ATP and 1.5 μM peptide substrate (FITC-AHA-AKRRRLSSLRA-OH) (SEQ ID NO. 1). Compounds were dissolved in DMSO so that the final concentration of DMSO was <2%, and the reaction was initiated with Rho kinase variants. After incubation, the reaction was terminated by the addition of EDTA and the phosphorylated and non-phosphorylated peptides separated using a LABCHIP® 3000 Reader (Caliper Life Sciences). […] Compounds were tested in dose-response format, and the inhibition of kinase activity was calculated at each concentration of compound. The inhibition data were fit using a curve-fitting program to determine the IC50; i.e., the concentration of compound required to inhibit 50% of kinase activity.
Representative examples were tested in the ROCK2 assay described above and found having ROCK2 inhibitory activity.
As to `COc1cccc(CN2C(=O)N(c3ccc(-c4cn[nH]c4)cc3)CC23CCN(CC2CCCC2)CC3)c1` [Example 118, 3-(4-(1H-pyrazol-4-yl)phenyl)-8-(cyclopentylmethyl)-1-(3-methoxybenzyl)-1,3,8-triazaspiro[4.5]decan-2-one], the IC50 is under 3 nM. Compound `COc1cccc(CN2C(=O)N(c3ccc(-c4cn[nH]c4)cc3)CC23CCN(C(=O)C2CCC(F)(F)C2)CC3)c1` (centres unmarked) [Example 175, 3-(4-(1H-pyrazol-4-yl)phenyl)-8-(3,3-difluorocyclopentane-carbonyl)-1-(3-methoxybenzyl)-1,3,8-triazaspiro[4.5]decan-2-one] showed an IC50 of under 3 nM.

As to `COc1cc(F)cc(CN2C(=O)N(c3ccc(-c4cn[nH]c4)cc3)CC23CCNCC3)c1` [Example 58, 3-(4-(1H-pyrazol-4-yl)phenyl)-1-(3-fluoro-5-methoxybenzyl)-1,3,8-triazaspiro[4.5]decan-2-one, TFA], the half-maximal inhibitory concentration (IC50) was under 3 nM. `COc1cccc(CN2C(=O)N(c3ccc(-c4cn[nH]c4)cn3)CC23CCN(C(=O)C(C)O)CC3)c1` (centres unmarked) [Example 198, 3-(5-(1H-pyrazol-4-yl)pyridin-2-yl)-8-(2-hydroxypropanoyl)-1-(3-methoxybenzyl)-1,3,8-triazaspiro[4.5]decan-2-one] yielded an IC50 of 3 to 30 nM. The compound `COc1cccc(CN2C(=O)N(c3ccc(-c4cn[nH]c4)cc3)CC23CCN(CC2CCC2)CC3)c1` [Example 232, 3-(4-(1H-pyrazol-4-yl)phenyl)-8-(cyclobutyl-methyl)-1-(3-methoxy-benzyl)-1,3,8-triazaspiro [4.5]decan-2-one] registered an IC50 of under 3 nM. As for `COc1cccc(NC2C(=O)N(c3ccc(-c4cn[nH]c4)cn3)CC23CCN(C(=O)Cc2csc(C)n2)CC3)c1` (centres unmarked) [Example 257, 2-(5-(1H-pyrazol-4-yl)pyridin-2-yl)-4-((3-methoxy-phenyl)amino)-8-(2-(2-methyl-thiazol-4-yl)acetyl)-2,8-diazaspiro [4.5]decan-3-one], the IC50 was in the range of 250 to 3000 nM.

`O=C(NC1CCOC1)c1cccc(CN2C(=O)N(c3ccc(-c4cn[nH]c4)cc3)CC23CCOCC3)c1` (centres unmarked) [Example 40, 3-((3-(4-(1H-pyrazol-4-yl)phenyl)-2-oxo-8-oxa-1,3-diazaspiro[4.5]decan-1-yl)methyl)-N-(tetrahydrofuran-3-yl)benzamide] showed an IC50 of under 3 nM. The same measure for `O=C(c1cccc(CN2C(=O)N(c3ccc(-c4cn[nH]c4)cc3)CC23CCOCC3)c1)N1CC[C@H](O)C1` [Example 44, (S)-3-(4-(1H-pyrazol-4-yl)phenyl)-1-(3-(3-hydroxypyrrolidine-1-carbonyl)benzyl)-8-oxa-1,3-diazaspiro[4.5]decan-2-one]: 30 to 250 nM. The value for `COc1cccc(CN2C(=O)N(c3ccc(-c4cn[nH]c4)cc3)CC23CCN(C(=O)CO)CC3)c1` [Example 176, 3-(4-(1H-pyrazol-4-yl)phenyl)-8-(2-hydroxyacetyl)-1-(3-methoxybenzyl)-1,3,8-triazaspiro[4.5]decan-2-one] was under 3 nM; that for `COc1cccc(CN2C(=O)N(c3ccc(-c4cn[nH]c4)cc3)CC23CCN(CC2CCOCC2)CC3)c1` [Example 233, 3-(4-(1H-pyrazol-4-yl)phenyl)-1-(3-methoxy-benzyl)-8-((tetrahydro-2H-pyran-4-yl)methyl)-1,3,8-triazaspiro [4.5]decan-2-one] was under 3 nM; that for `COCCN1CCC2(CC1)CN(c1ccc(-c3cn[nH]c3)cn1)C(=O)N2Cc1cccc(OC)c1` [Example 162, 3-(5-(1H-pyrazol-4-yl)pyridin-2-yl)-1-(3-methoxybenzyl)-8-(2-methoxyethyl)-1,3,8-triazaspiro[4.5]decan-2-one] was under 3 nM. `COc1cccc(CN2C(=O)N(c3ccc(-c4cn[nH]c4)cc3)CC23CCN(CC2CC2)CC3)c1` [Example 115, 3-(4-(1H-pyrazol-4-yl)phenyl)-8-(cyclopropylmethyl)-1-(3-methoxybenzyl)-1,3,8-triazaspiro[4.5]decan-2-one] had an IC50 of under 3 nM.

`CN(C)C1CN(C(=O)c2cccc(CN3C(=O)N(c4ccc(-c5cn[nH]c5)cc4)CC34CCOCC4)c2)C1` [Example 46, 3-(4-(1H-pyrazol-4-yl)phenyl)-1-(3-(3-(dimethylamino)azetidine-1-carbonyl)benzyl)-8-oxa-1,3-diazaspiro[4.5]decan-2-one] displayed an IC50 of 3 to 30 nM.

In turn, `COc1cccc(CN2C(=O)N(c3ccc(-c4cn[nH]c4)cc3)CC23CC[N+]([O-])(CCO)CC3)c1` (centres unmarked) [Example 145, 3-(4-(1H-pyrazol-4-yl)phenyl)-8-(2-hydroxyethyl)-1-(3-methoxybenzyl)-2-oxo-1,3,8-triazaspiro[4.5]decane 8-oxide] returned an IC50 of under 3 nM.

The compound `COc1cccc(CN2C(=O)N(c3ccc(-c4cn[nH]c4)cn3)CC23CCN(C(=O)C2COC2)CC3)c1` [Example 196, 3-(5-(1H-pyrazol-4-yl)pyridin-2-yl)-1-(3-methoxybenzyl)-8-(oxetane-3-carbonyl)-1,3,8-triazaspiro[4.5]decan-2-one] displayed an IC50 of 3 to 30 nM. As to `O=C1N(c2ccc(-c3cn[nH]c3)cc2)CC2(CCNCC2)N1Cc1ccccc1F` [Example 63, 3-(4-(1H-pyrazol-4-yl)phenyl)-1-(2-fluorobenzyl)-1,3,8-triazaspiro[4.5]decan-2-one], the IC50 was 3 to 30 nM.

`COc1cccc(CN2C(=O)N(c3ccc(-c4cn[nH]c4)cc3)CC23CCN(CCO)CC3)c1` [Example 141, 3-(4-(1H-pyrazol-4-yl)phenyl)-8-(2-hydroxyethyl)-1-(3-methoxybenzyl)-1,3,8-triazaspiro[4.5]decan-2-one] had an IC50 of under 3 nM.

`CCOC(=O)N1CCC2(CC1)CN(c1ncc(-c3cn[nH]c3)c(OC)n1)C(=O)N2Cc1cccc(OC)c1` [Example 112, ethyl 3-(4-methoxy-5-(1H-pyrazol-4-yl)pyrimidin-2-yl)-1-(3-methoxybenzyl)-2-oxo-1,3,8-triazaspiro[4.5]decane-8-carboxylate] had a half-maximal inhibitory concentration (IC50) of 3 to 30 nM. For `COc1cccc(C(C)N2C(=O)N(c3ccc(-c4cn[nH]c4)cc3)CC23CC3)c1` (single isomer, unassigned) [Example 2, 6-(4-(1H-pyrazol-4-yl)phenyl)-4-(1-(3-methoxyphenyl)ethyl)-4,6-diazaspiro[2.4]heptan-5-one], the 50% inhibitory concentration (IC50) was 3 to 30 nM. The same measure for `CN(C(=O)c1cccc(CN2C(=O)N(c3ccc(-c4cn[nH]c4)cc3)CC23CCOCC3)c1)C1CC1` [Example 45, 3-((3-(4-(1H-pyrazol-4-yl)phenyl)-2-oxo-8-oxa-1,3-diazaspiro[4.5]decan-1-yl)methyl)-N-cyclopropyl-N-methylbenzamide]: under 3 nM; for `COC(=O)N1CCC2(CC1)CN(c1ccc(-c3cn[nH]c3)cc1)C(=O)N2Cc1cc(F)cc(OC)c1` [Example 109, methyl 3-(4-(1H-pyrazol-4-yl)phenyl)-1-(3-fluoro-5-methoxybenzyl)-2-oxo-1,3,8-triazaspiro[4.5]decane-8-carboxylate]: under 3 nM. The value for `CCc1nc(N2CC3(CCN(C(=O)C(F)F)CC3)N(Cc3cccc(OC)c3)C2=O)ccc1-c1cn[nH]c1` [Example 183, 8-(2,2-difluoroacetyl)-3-(6-ethyl-5-(1H-pyrazol-4-yl)pyridin-2-yl)-1-(3-methoxybenzyl)-1,3,8-triazaspiro[4.5]decan-2-one] was under 3 nM; that for `COc1cccc(CN2C(=O)N(c3ccc(-c4cn[nH]c4)c(OC)n3)CC23CCN(CCC(F)(F)F)CC3)c1` [Example 136, 3-(6-methoxy-5-(1H-pyrazol-4-yl)pyridin-2-yl)-1-(3-methoxybenzyl)-8-(3,3,3-trifluoropropyl)-1,3,8-triazaspiro[4.5]decan-2-one] was under 3 nM. On to `COc1nc(N2CC3(CCN(CC(C)O)CC3)N(Cc3cccc(F)c3C)C2=O)ccc1-c1cn[nH]c1` (centres unmarked) [Example 166, 1-(3-fluoro-2-methylbenzyl)-8-(2-hydroxypropyl)-3-(6-methoxy-5-(1H-pyrazol-4-yl)pyridin-2-yl)-1,3,8-triazaspiro[4.5]decan-2-one], for which the IC50 is under 3 nM. As to `Cc1cc(F)ccc1CN1C(=O)N(c2ccc(-c3cn[nH]c3)cc2)CC12CCOCC2` [Example 26, 3-(4-(1H-pyrazol-4-yl)phenyl)-1-(4-fluoro-2-methylbenzyl)-8-oxa-1,3-diazaspiro[4.5]decan-2-one], the IC50 was in the range of 30 to 250 nM.

For `CCc1nc(N2CC3(CCN(C(=O)COC)CC3)N(Cc3cccc(OC)c3)C2=O)ccc1-c1cn[nH]c1` [Example 206, 3-(6-ethyl-5-(1H-pyrazol-4-yl)pyridin-2-yl)-8-(2-methoxyacetyl)-1-(3-methoxybenzyl)-1,3,8-triazaspiro[4.5]decan-2-one], the IC50 is under 3 nM. `COc1cccc(CN2C(=O)N(c3ncc(-c4cn[nH]c4)c(OC)n3)CC23CCN(CCC(F)(F)F)CC3)c1` [Example 134, 3-(4-methoxy-5-(1H-pyrazol-4-yl)pyrimidin-2-yl)-1-(3-methoxybenzyl)-8-(3,3,3-trifluoropropyl)-1,3,8-triazaspiro[4.5]decan-2-one] gave an IC50 of 30 to 250 nM. In the case of `CCc1nc(N2CC3(CCN(C(=O)CN(C)C)CC3)N(Cc3cccc(OC)c3)C2=O)ccc1-c1cn[nH]c1` [Example 203, 8-(2-(dimethylamino)acetyl)-3-(6-ethyl-5-(1H-pyrazol-4-yl)pyridin-2-yl)-1-(3-methoxybenzyl)-1,3,8-triazaspiro[4.5]decan-2-one], the IC50 was under 3 nM. The value for `CCc1nc(N2CC3(CCN(C(=O)OC)CC3)N(Cc3cccc(F)c3C)C2=O)ccc1-c1cn[nH]c1` [Example 104, methyl 3-(6-ethyl-5-(1H-pyrazol-4-yl)pyridin-2-yl)-1-(3-fluoro-2-methylbenzyl)-2-oxo-1,3,8-triazaspiro[4.5]decane-8-carboxylate] was under 3 nM.
